Common to all, as to format: functional
The test system of test [1] is Escherichia coli. In words: Antibacterial activity against Escherichia coli ATCC 25922 measured after overnight incubation.
The test system of test [2] is Pseudomonas aeruginosa. In words: Antibacterial activity against Pseudomonas aeruginosa ATCC 15442 measured after overnight incubation.
Test [3] relates to Bacillus spizizenii. The experiment in a line: Antibacterial activity against Bacillus subtilis ATCC 6633 measured after overnight incubation.
In test [4] the test system is Staphylococcus aureus. In words: Antibacterial activity against Staphylococcus aureus ATCC 6538 measured after overnight incubation.
In test [5] the test system is Klebsiella pneumoniae. The experiment in a line: Antibacterial activity against Klebsiella pneumoniae ATCC 1705 measured after overnight incubation. To be noted: ATCC BAA-1705.
Test [6] concerns Pseudomonas aeruginosa. The experiment in a line: Antibacterial activity against Pseudomonas aeruginosa clinical isolates measured after overnight incubation.
The test system of test [7] is Streptococcus pyogenes. The experiment in a line: Antibacterial activity against Streptococcus hemolyticus clinical isolates measured after overnight incubation.
For test [8], the system named is Escherichia coli. The experiment in a line: Antibacterial activity against Escherichia coli clinical isolates measured after overnight incubation.
Test [9] deals with Staphylococcus aureus. The experiment in a line: Antibacterial activity against methicillin-resistant Staphylococcus aureus clinical isolates measured after overnight incubation.
The test system of test [10] is Escherichia coli. The experiment in a line: Antibacterial activity against Escherichia coli.
The test system of test [11] is Staphylococcus epidermidis. In words: Antibacterial activity against Staphylococcus epidermidis.
For test [12], the system named is Staphylococcus aureus. The experiment in a line: Antibacterial activity against Staphylococcus aureus.

Values after ≈ are worked out from the molar mass of the structure shown. Active and inactive are the calls of the source. No cut-off for these calls is given here.

On to `COc1nc(NNC(=O)c2ccncc2)nc(N2CCNCC2)n1`, for which the MIC came out at 98.4 µM (≈ 32.5 µg/mL) in [1] (read-out: MIC); 98.4 µM (≈ 32.5 µg/mL) in test [2] (read-out: MIC); 49.2 µM in test [3]; 49.2 µM in [4]; 197 µM (≈ 65 µg/mL) in [5].

With `O=C(NNCN1CCNCC1)c1ccncc1`, the MIC result in [1], in test [2], in test [3], in [4] and in [5] was “inactive” in each case.

Turning to `Nc1ccc(C(=O)O)cc1`, the MIC entry in test [1], in [2], in test [3] and in test [4] was “inactive” each time.

`O=C(O)CC1(CNCN2CCN(c3cc4c(cc3F)c(=O)c(C(=O)O)cn4C3CC3)CC2)CCCCC1`: the MIC turned out to be 7.7 µM in [6]; 15.5 µM (≈ 7.98 µg/mL) in test [1] (read-out: MIC); 62.1 µM in test [7]; 15.5 µM (≈ 7.98 µg/mL) in test [2] (read-out: MIC); 62.1 µM in test [3]; 7.7 µM in test [8]. This molecule also came in with an MIC in test [5] of 15.5 µM (≈ 7.98 µg/mL).

Regarding `C=CC1=C(C(=O)O)N2C(=O)[C@@H](NC(=O)/C(=N\OCC(=O)O)c3csc(N)n3)[C@H]2SC1` [CEFIXIME], the minimal inhibitory concentration (MIC) in test [6] worked out at 0.5 µg/mL; in test [1] (read-out: MIC), 0.06 µM (≈ 0.0272 µg/mL); in test [7] it was 0.25 µg/mL; in [2] (read-out: MIC) it was 0.06 µM (≈ 0.0272 µg/mL); in [3], 0.06 µM; in test [8] it was 0.75 µg/mL.

Turning to `NNC(=O)c1ccncc1`, the MIC result in [1], in test [2], in test [3] and in test [4] was “inactive” in each case.

In the case of `NS(=O)(=O)c1ccc(NCCN2CCN(c3cc4c(cc3F)c(=O)c(C(=O)O)cn4C3CC3)CC2)cc1`, the MIC is 7.5 µM in test [6]; 3.7 µM (≈ 1.96 µg/mL) in test [9]; 7.5 µM (≈ 3.97 µg/mL) in [1] (read-out: MIC); 3.7 µM in test [7]; 7.5 µM (≈ 3.97 µg/mL) in test [2] (read-out: MIC); 3.7 µM in test [3]. Moreover, the figures for the MIC in [4], in [8] and in test [5] were 3.7 µM, 7.5 µM and 7.5 µM (≈ 3.97 µg/mL), respectively.

For `NS(=O)(=O)c1ccc(NCN2CCN(c3cc4c(cc3F)c(=O)c(C(=O)O)cn4C3CC3)CC2)cc1`, the MIC in test [6] stood at 7.7 µM; in test [9] it was 7.7 µM (≈ 3.97 µg/mL); in [1] (read-out: MIC), 1.9 µM (≈ 0.98 µg/mL); in [7], 7.7 µM; in [2] (read-out: MIC), 1.9 µM (≈ 0.98 µg/mL); in test [3], 0.9 µM. Moreover, the figures for the MIC in test [4], in test [8] and in test [5] were 0.9 µM, 7.7 µM and 1.9 µM (≈ 0.98 µg/mL), respectively.

`NS(=O)(=O)c1ccc(NC(=O)CC2(CNCN3CCN(c4cc5c(cc4F)c(=O)c(C(=O)O)cn5C4CC4)CC3)CCCCC2)cc1`: the minimum inhibitory concentration (MIC) in [6] was 0.74 µM; in test [9], 0.74 µM (≈ 0.495 µg/mL); in test [1] (read-out: MIC), 0.7 µM (≈ 0.468 µg/mL); in [2] (read-out: MIC), 0.7 µM (≈ 0.468 µg/mL); in test [3], 1.4 µM; in [4] it was 1.4 µM. Also, the figures for the MIC in test [8] and in test [5] were 0.74 µM and 0.7 µM (≈ 0.468 µg/mL), respectively.

For `O=C(O)c1cn(C2CC2)c2cc(N3CCNCC3)c(F)cc2c1=O` [CIPROFLOXACIN], the MIC in test [3] and in test [4] was 8 µg/mL in each case.

For `O=C(NNCN1CCN(c2cc3c(cc2F)c(=O)c(C(=O)O)cn3C2CC2)CC1)c1ccncc1`, the minimum inhibitory concentration (MIC) in [6] turned out to be 33.2 µM; in [9], 2 µM (≈ 0.961 µg/mL); in test [1] (read-out: MIC), 7.7 µM (≈ 3.7 µg/mL); in [7], 8.3 µM; in test [2] (read-out: MIC) it was 7.7 µM (≈ 3.7 µg/mL); in test [3], 7.7 µM. The minimal inhibitory concentration (MIC) amounted to 4.1 µM in [4], 33.2 µM in test [8] and 7.7 µM (≈ 3.7 µg/mL) in test [5].

With `O=C(O)CC1(CNCN2CCNCC2)CCCCC1`, the minimal inhibitory concentration (MIC) turned out to be 238 µM (≈ 64 µg/mL) in [1] (read-out: MIC); 238 µM (≈ 64 µg/mL) in [2] (read-out: MIC); 119 µM in test [3]; 119 µM in test [4]; 238 µM (≈ 64 µg/mL) in test [5].

With `NS(=O)(=O)c1ccc(NCN2CCNCC2)cc1`, the MIC result in [1], in [2], in test [3], in test [4] and in [5] was “inactive” throughout.

Take `O=C(NNCCN1CCN(c2cc3c(cc2F)c(=O)c(C(=O)O)cn3C2CC2)CC1)c1ccncc1`: the minimum inhibitory concentration (MIC) worked out at 8 µM in test [6]; 4 µM (≈ 1.98 µg/mL) in [9]; 4 µM (≈ 1.98 µg/mL) in [1] (read-out: MIC); 8 µM in test [7]; 4 µM (≈ 1.98 µg/mL) in test [2] (read-out: MIC); 1 µM in [3]. Also, the MIC in test [4] amounted to 1 µM; in test [8], 8 µM; in test [5] it was 4 µM (≈ 1.98 µg/mL).

For `O=C(O)c1ccc(NCCN2CCN(c3cc4c(cc3F)c(=O)c(C(=O)O)cn4C3CC3)CC2)cc1`, the MIC in [6] came to 1 µM; in test [9] it was 16.1 µM (≈ 7.96 µg/mL); in test [1] (read-out: MIC), 1 µM (≈ 0.495 µg/mL); in test [2] (read-out: MIC) it was 1 µM (≈ 0.495 µg/mL); in [3], 2 µM; in test [4], 2 µM. Besides, the minimal inhibitory concentration (MIC) was 1 µM in test [8] and 2 µM (≈ 0.989 µg/mL) in test [5].

On to `O=C(O)CC1(CNCCN2CCN(c3cc4c(cc3F)c(=O)c(C(=O)O)cn4C3CC3)CC2)CCCCC1`, for which the MIC was found to be 3.7 µM in test [6]; 30.2 µM (≈ 16 µg/mL) in test [9]; 7.5 µM (≈ 3.96 µg/mL) in test [1] (read-out: MIC); 15.1 µM (≈ 7.98 µg/mL) in test [2] (read-out: MIC); 30.2 µM in test [3]; 30.2 µM in test [4]. Also, the figures for the minimal inhibitory concentration (MIC) in test [8] and in test [5] were 3.7 µM and 7.5 µM (≈ 3.96 µg/mL), respectively.

`NCC1(CC(=O)O)CCCCC1`: the MIC entry in [1], in [2], in test [3] and in [4] was “inactive” each time.

Take `O=C(O)c1ccc(NCN2CCNCC2)cc1`: the MIC in test [1] is 1090 µM (≈ 256 µg/mL); in test [2], 1090 µM (≈ 256 µg/mL); in [3], 272 µM; in test [4], 272 µM; in [5], 1090 µM (≈ 256 µg/mL).

As for `CC[C@H]1OC(=O)[C@H](C)[C@@H](O[C@H]2C[C@@](C)(OC)[C@@H](O)[C@H](C)O2)[C@H](C)[C@@H](O[C@@H]2O[C@H](C)C[C@H](N(C)C)[C@H]2O)[C@](C)(O)C[C@@H](C)/C(=N\OCOCCOC)[C@H](C)[C@@H](O)[C@]1(C)O` [ROXITHROMYCIN], inhibition of growth in test [4] (MIC) required 0.039 µM.

Turning to `COc1cc(Cc2cnc(N)nc2N)cc(OC)c1OCCN1CCN(c2cc3c(cc2F)c(=O)c(C(=O)O)cn3C2CC2)CC1`, the MIC50 turned out to be 1 µg/mL (≈ 1.58 µM) in test [10], 0.5 µg/mL (≈ 0.789 µM) in [11] and 0.5 µg/mL (≈ 0.789 µM) in test [12].

As for `O=C(O)c1ccc(NCN2CCN(c3cc4c(cc3F)c(=O)c(C(=O)O)cn4C3CC3)CC2)cc1`, the MIC came to 8.3 µM in [6]; 66.5 µM (≈ 32 µg/mL) in [9]; 8.3 µM (≈ 3.99 µg/mL) in test [1] (read-out: MIC); 8.3 µM in test [7]; 8.3 µM (≈ 3.99 µg/mL) in test [2] (read-out: MIC); 16.6 µM in [3]. Also, the figures for the minimum inhibitory concentration (MIC) in test [4], in test [8] and in [5] were 16.6 µM, 8.3 µM and 16.6 µM (≈ 7.98 µg/mL), respectively.

For the molecule `Nc1ccc(S(N)(=O)=O)cc1`, the MIC result in test [1], in [2], in test [3] and in test [4] was “inactive” throughout.

The term MIC denotes the lowest concentration that inhibits growth of the organism. Usually MIC50 stands for the lowest concentration that inhibits either 50% of growth or 50% of the strains tested, depending on the study. Lower therefore signals greater potency.

These data come from ChEMBL document CHEMBL4400526, “Design, synthesis and anti-bacterial studies of piperazine derivatives against drug resistant bacteria” (2019).
